Patent US6559185B2, “Nitromethyl ketone compounds having aldose reduction inhibiting properties and methods for their use” (Merck Patent GmbH, priority 1997, dated 2003)

How the values were obtained:
aldose reductase = biological target: T1, aldose reductase (Rattus norvegicus, UniProt P07943); experiment: Study in vitro: inhibition of aldose reductase; type: biochemical; conditions: enzyme from male Wistar rat crystalline lenses; L-glyceraldehyde, NADPH disappearance at 340 nm
T1 construct: The aldose reductase used is obtained from male Wistar rat crystalline lenses; from tissue; host or cells: male Wistar rat crystalline lenses
Description: 1) Study in Vitro: Inhibition of Aldose Reductase
The aldose reductase used is obtained from male Wistar rat crystalline lenses according to a modification of the method of S. HAYMAN et al. (Journal of Biological Chemistry 240, p., 877, 1965). The enzymatic extract is diluted in a phosphate buffer in the presence of NADPH and various concentrations of the test products. The reaction is initiated, with L-glyceraldehyde and the reaction rate is measured by monitoring the disappearance of NADPH by spectrophotometry at 340 nm. The reaction rate is calculated for each product concentration and then the concentration necessary for a 50% reduction in the reaction rate (IC50) is evaluated by linear interpolation.

[1] = test system: sorbitol level in the sciatic nerves; experiment: Study in vivo: reduction of sorbitol accumulation in sciatic nerves of streptozotocin-diabetic rats; conditions: 10 mg/kg/d oral, 4, 30 and 52 h after streptozotocin (60 mg/kg i.v.); sciatic nerve sorbitol 18 h after last dose; diabetic male Wistar rats
Description: 2) Study in Vivo: Reduction of Sorbitol Accumulation
200 to 250 g male Wistar rats are made diabetic by intravenous injection of streptozotocin (60 mg/kg). They then receive an oral treatment of the test products, in the form of a suspension, 4 hours, 30 hours and 52 hours after the injection of streptozotocin. Eighteen hours after the last oral treatment, the rats are stunned and decapitated and then their sciatic nerves are removed. After extraction, the sorbitol level in the nerves is measured according to the enzymatic method described by H. U. BERGMEYER (Methods of enzymatic analysis. H. U. BERGMEYER ed., Academic Press New York 3, p. 1323, 1974).
The percentage protection is calculated for each product relative to the batch of diabetic animals taking into account the sorbitol level in the sciatic nerves of nondiabetic rats.

melting point [°C] | IC50 (aldose reductase) [nM] | SMILES | Protection against increase in sorbitol after administration 10 mg/kg/d (%) [1] [%]
55 to 57 | – | O=C(C[N+](=O)[O-])c1ccccc1C(F)(F)F | –
60 to 63 | – | CCCCCC(=O)Nc1ccc(C(=O)C[N+](=O)[O-])c(Cl)c1 [Example 20, N-[3-chloro-4-nitromethylcarbonylphenyl]hexaneamide] | –
121 to 124 | 7 | O=C(Cc1ccccc1)Nc1ccc(C(=O)C[N+](=O)[O-])c(Cl)c1 [Example 24, N-[3-Chloro-4-nitromethylcarbonylphenyl]phenylacetamide] | 45
– | 7 | O=C(Cc1ccccc1Cl)Nc1ccc(C(=O)C[N+](=O)[O-])c(Cl)c1 [Example 28, 2-Chloro-N-[3-chloro-4-nitromethylcarbonylphenyl]phenylacetamide] | 58
160 to 162 | 7 | O=C(Cc1ccccc1C(F)(F)F)Nc1ccc(C(=O)C[N+](=O)[O-])c(Cl)c1 [Example 30, N-[3-Chloro-4-nitromethylcarbonylphenyl]-2-trifluoromethylphenylacetamide] | 61
– | 7 | Cc1ccccc1CC(=O)Nc1ccc(C(=O)C[N+](=O)[O-])c(Cl)c1 [Example 43, N-[3-Chloro-4-nitromethylcarbonylphenyl]-2-methylphenylacetamide] | 70
– | 6 | Cc1ccccc1CC(=O)Nc1ccc(C(=O)C[N+](=O)[O-])c(C)c1 [Example 59, N-[3-Methyl-4-nitromethylcarbonylphenyl]-2-methylphenylacetamide] | 52
125 to 127 | – | Cc1ccccc1CC(=O)Nc1ccc(C(=O)C[N+](=O)[O-])cc1Br [Example 60, N-[2-Bromo-4-nitromethylcarbonylphenyl]-2-methylphenylacetamide] | –
77 to 78 | – | O=C(C[N+](=O)[O-])c1ccc(Sc2ccccc2)cc1Cl [Example 64, Nitromethyl 2-Chloro-4-phenylthiophenyl Ketone] | –

Second part, the compound before the results:

SMILES | melting point [°C] | IC50 (aldose reductase) [nM] | Protection against increase in sorbitol after administration 10 mg/kg/d (%) [1] [%]
N#Cc1ccccc1C(=O)C[N+](=O)[O-] | 147 to 149 | – | –
CCc1ccccc1C(=O)C[N+](=O)[O-] | 62 to 63 | – | –
CCOc1ccccc1C(=O)C[N+](=O)[O-] | 145 to 148 | – | –
CC(C)Oc1ccccc1C(=O)C[N+](=O)[O-] | 78 to 80 | – | –
O=C(C[N+](=O)[O-])c1ccccc1OC(F)(F)F [Example 1, Nitromethyl 2-Trifluoromethoxyphenyl Ketone] | – | 41 | 70
CC(C(=O)Nc1ccc(C(=O)C[N+](=O)[O-])c(Cl)c1)c1ccccc1 (stereo not drawn) [Example 23, N-[3-Chloro-4-nitromethylcarbonylphenyl]-2-phenylpropaneamide] | 136 to 137 | 7 | 40
CC(=O)Nc1cccc(C(=O)C[N+](=O)[O-])c1Cl [Example 34, N-[2-Chloro-3-nitromethylcarbonylphenyl]acetamide] | 140 to 142 | – | –
O=C(C[N+](=O)[O-])c1cc(NS(=O)(=O)c2ccccc2)ccc1Cl [Example 38, N-[4-Chloro-3-nitromethylcarbonylphenyl]benzenesulfonamide] | 152 to 154 | – | –
